The values below come from PMC5218480 (PLoS ONE, 2017).

The experiment deals with MV-4-11 cells. The experiment can be described thus: Gene expression microarray analysis (Affymetrix PrimeView) and GSEA. It is filed as cell-based, human. On the set-up: RFU PODN (11730768_x_at) / Fold change /veh PODN (11730768_x_at) / RFU LINC00158 (11744669_a_at) / Fold change /veh LINC00158 (11744669_a_at) / RFU DUSP10 (11751237_a_at) / Fold change /veh DUSP10 (11751237_a_at) / RFU ID3 (11757404_x_at) / Fold change /veh ID3 (11757404_x_at) / RFU PLEKHG5 (11737974_s_at) / Fold change /veh PLEKHG5 (11737974_s_at) / RFU LRRC4B (11730491_at) / Fold change /veh LRRC4B (11730491_at) / RFU GIMAP4 (11747438_a_at) / Fold change /veh GIMAP4 (11747438_a_at) / RFU KRT8 (11758183_x_at) / Fold change /veh KRT8 (11758183_x_at) / RFU CNN1 (11734310_a_at) / Fold change /veh CNN1 (11734310_a_at) / RFU VPS37D (11726825_at) / Fold change /veh VPS37D (11726825_at) / RFU C10orf10 (11716522_x_at) / Fold change /veh C10orf10 (11716522_x_at) / RFU KIR2DL2 /// KIR2DL4 /// KIR2DL5A /// KIR2DL5B /// KIR2DS1 /// KIR2DS2 /// KIR2DS3 /// KIR2DS4 /// KIR3DL3 /// KIR3DL3 /// KIR3DS1 (11738374_at) / Fold change /veh KIR2DL2 /// KIR2DL4 /// KIR2DL5A /// KIR2DL5B /// KIR2DS1 /// KIR2DS2 /// KIR2DS3 /// KIR2DS4 /// KIR3DL3 /// KIR3DL3 /// KIR3DS1 (11738374_at) / RFU C1QL1 (11718748_at) / Fold change /veh C1QL1 (11718748_at) / RFU TMPRSS4 (11747572_a_at) / Fold change /veh TMPRSS4 (11747572_a_at) / RFU HAMP (11756126_x_at) / Fold change /veh HAMP (11756126_x_at) / RFU RNFT2 (11725882_a_at) / Fold change /veh RNFT2 (11725882_a_at) / RFU NR4A2 (11747474_a_at) / Fold change /veh NR4A2 (11747474_a_at) / RFU ABCC12 (11746883_a_at) / Fold change /veh ABCC12 (11746883_a_at) / RFU TMEM136 (11760407_x_at) / Fold change /veh TMEM136 (11760407_x_at) / RFU CLDN22 /// WWC2 (11732394_at) / Fold change /veh CLDN22 /// WWC2 (11732394_at) / RFU HLA-DPB1 (11760878_x_at) / Fold change /veh HLA-DPB1 (11760878_x_at) / RFU SPINT1 (11716480_a_at) / Fold change /veh SPINT1 (11716480_a_at) / RFU GAP43 (11754022_s_at) / Fold change /veh GAP43 (11754022_s_at) / RFU A4GNT (11735810_at) / Fold change /veh A4GNT (11735810_at) / RFU PRB3 (11715151_x_at) / Fold change /veh PRB3 (11715151_x_at) / RFU TUBB4B (11761932_at) / Fold change /veh TUBB4B (11761932_at) / RFU CAPN14 (11732068_a_at) / Fold change /veh CAPN14 (11732068_a_at) / RFU TMCC2 (11721928_a_at) / Fold change /veh TMCC2 (11721928_a_at) / RFU IRGQ (11745062_a_at) / Fold change /veh IRGQ (11745062_a_at) / RFU FAM174B (11720279_a_at) / Fold change /veh FAM174B (11720279_a_at) / RFU TMPRSS4 (11748680_a_at) / Fold change /veh TMPRSS4 (11748680_a_at) / RFU FAM212B (11763350_a_at) / Fold change /veh FAM212B (11763350_a_at) / RFU PLEKHG5 (11743358_a_at) / Fold change /veh PLEKHG5 (11743358_a_at) / RFU ZSCAN30 (11745921_a_at) / Fold change /veh ZSCAN30 (11745921_a_at) / RFU CMKLR1 (11741424_a_at) / Fold change /veh CMKLR1 (11741424_a_at) / RFU LOC101060620 /// MAPK8IP1 (11723275_at) / Fold change /veh LOC101060620 /// MAPK8IP1 (11723275_at) / RFU SPTSSB (11747773_x_at) / Fold change /veh SPTSSB (11747773_x_at) / RFU PRSS12 (11739890_at) / Fold change /veh PRSS12 (11739890_at) / RFU BIN1 (11741810_x_at) / Fold change /veh BIN1 (11741810_x_at) / RFU WNT11 (11732464_a_at) / Fold change /veh WNT11 (11732464_a_at) / RFU C10orf10 (11716521_a_at) / Fold change /veh C10orf10 (11716521_a_at) / RFU C5orf56 (11738089_at) / Fold change /veh C5orf56 (11738089_at) / RFU CYB561 (11721691_x_at) / Fold change /veh CYB561 (11721691_x_at) / RFU ANKRD19P (11752326_a_at) / Fold change /veh ANKRD19P (11752326_a_at) / RFU OR2T12 /// OR2T33 /// OR2T8 (11738714_s_at) / Fold change /veh OR2T12 /// OR2T33 /// OR2T8 (11738714_s_at) / RFU VCAN (11748164_a_at) / Fold change /veh VCAN (11748164_a_at) / RFU JSRP1 (11732532_at) / Fold change /veh JSRP1 (11732532_at) / RFU KRTAP10-11 (11738290_x_at) / Fold change /veh KRTAP10-11 (11738290_x_at) / RFU MYO3A (11730013_a_at) / Fold change /veh MYO3A (11730013_a_at) / RFU EBF3 (11725865_a_at) / Fold change /veh EBF3 (11725865_a_at) / RFU CAMK2N1 (11719241_x_at) / Fold change /veh CAMK2N1 (11719241_x_at) / RFU C5orf56 (11738088_a_at) / Fold change /veh C5orf56 (11738088_a_at) / RFU OLFML3 (11715873_a_at) / Fold change /veh OLFML3 (11715873_a_at) / RFU LOC100653217 /// NTM (11731650_a_at) / Fold change /veh LOC100653217 /// NTM (11731650_a_at) / RFU MAPK11 (11762145_a_at) / Fold change /veh MAPK11 (11762145_a_at) / RFU FIZ1 (11724087_x_at) / Fold change /veh FIZ1 (11724087_x_at) / RFU OASL (11726364_x_at) / Fold change /veh OASL (11726364_x_at) / RFU SOX15 (11748057_x_at) / Fold change /veh SOX15 (11748057_x_at) / RFU CD79A (11719716_a_at) / Fold change /veh CD79A (11719716_a_at) / RFU HIST1H1D (11736915_at) / Fold change /veh HIST1H1D (11736915_at) / RFU CASKIN2 (11723855_a_at) / Fold change /veh CASKIN2 (11723855_a_at) / RFU LOC730098 (11760151_x_at) / Fold change /veh LOC730098 (11760151_x_at) / RFU OR4N2 (11742367_at) / Fold change /veh OR4N2 (11742367_at) / RFU PRRT2 (11749266_a_at) / Fold change /veh PRRT2 (11749266_a_at) / RFU SNX32 (11753110_a_at) / Fold change /veh SNX32 (11753110_a_at) / RFU CDHR5 (11726645_a_at) / Fold change /veh CDHR5 (11726645_a_at) / RFU RCAN1 (11760418_a_at) / Fold change /veh RCAN1 (11760418_a_at) / RFU FAM167A (11723789_a_at) / Fold change /veh FAM167A (11723789_a_at) / RFU FAM26E (11764081_at) / Fold change /veh FAM26E (11764081_at) / RFU ISYNA1 (11749810_s_at) / Fold change /veh ISYNA1 (11749810_s_at) / RFU ACY1 (11761880_at) / Fold change /veh ACY1 (11761880_at) / RFU 11764098_at / Fold change /veh 11764098_at / RFU SAMD14 (11745864_x_at) / Fold change /veh SAMD14 (11745864_x_at) / RFU NPB (11741838_a_at) / Fold change /veh NPB (11741838_a_at) / RFU TMPRSS6 (11731388_a_at) / Fold change /veh TMPRSS6 (11731388_a_at) / RFU KRTAP10-2 (11738614_at) / Fold change /veh KRTAP10-2 (11738614_at) / RFU ARHGAP8 /// PRR5-ARHGAP8 (11727945_x_at) / Fold change /veh ARHGAP8 /// PRR5-ARHGAP8 (11727945_x_at) / RFU KRTAP5-7 /// NADSYN1 (11734609_at) / Fold change /veh KRTAP5-7 /// NADSYN1 (11734609_at) / RFU RASL12 (11751679_a_at) / Fold change /veh RASL12 (11751679_a_at) / RFU CDKN2B (11736163_a_at) / Fold change /veh CDKN2B (11736163_a_at) / RFU PRF1 (11729649_at) / Fold change /veh PRF1 (11729649_at) / RFU, ZNF638 /// ZNF638-IT1 / Fold change vs veh, ZNF638 /// ZNF638-IT1 / RFU, PANK3 / Fold change vs veh, PANK3 / RFU, SH3YL1 / Fold change vs veh, SH3YL1 / RFU, ZEB2 / Fold change vs veh, ZEB2 / RFU, NRIP1 / Fold change vs veh, NRIP1 / RFU, PTTG1IP / Fold change vs veh, PTTG1IP / RFU, CAPN2 / Fold change vs veh, CAPN2 / RFU, MED14 / Fold change vs veh, MED14 / RFU, SNORA58 / Fold change vs veh, SNORA58 / RFU, C1orf63 / Fold change vs veh, C1orf63 / RFU, LRRFIP1 / Fold change vs veh, LRRFIP1 / RFU, NDUFAF7 / Fold change vs veh, NDUFAF7 / RFU, SLC12A2 / Fold change vs veh, SLC12A2 / RFU, IBTK / Fold change vs veh, IBTK / RFU, ESF1 / Fold change vs veh, ESF1 / Fold change vs veh, TMEM50B / RFU, TAOK1 / Fold change vs veh, TAOK1 / RFU, ACBD3 / Fold change vs veh, ACBD3 / RFU, TMA16 / Fold change vs veh, TMA16 / RFU, RWDD3 / Fold change vs veh, RWDD3 / RFU, BCAT1 / Fold change vs veh, BCAT1 / RFU, EDEM3 / Fold change vs veh, EDEM3 / RFU, TMEM33 / Fold change vs veh, TMEM33 / RFU, WDR75 / Fold change vs veh, WDR75 / RFU, AHCTF1 / Fold change vs veh, AHCTF1 / RFU, TFRC / Fold change vs veh, TFRC / RFU, ZDHHC17 / Fold change vs veh, ZDHHC17 / RFU, NOM1 / Fold change vs veh, NOM1 / RFU, ARL8B / Fold change vs veh, ARL8B / RFU, ZBTB11 / Fold change vs veh, ZBTB11 / RFU, TAMM41 / Fold change vs veh, TAMM41 / RFU, KIAA1704 /// LOC100996395 / Fold change vs veh, KIAA1704 /// LOC100996395 / RFU, ING1 / Fold change vs veh, ING1 / RFU, TRMT61B / Fold change vs veh, TRMT61B / RFU, FUBP3 / Fold change vs veh, FUBP3 / RFU, TP53 / Fold change vs veh, TP53 / RFU, TNKS2 / Fold change vs veh, TNKS2 / RFU, ZFP14 / Fold change vs veh, ZFP14 / RFU, ACTR2 / Fold change vs veh, ACTR2 / RFU, PPP3R1 / Fold change vs veh, PPP3R1 / RFU, PIK3R1 / Fold change vs veh, PIK3R1 / RFU, HNRNPA1 / Fold change vs veh, HNRNPA1 / RFU, RNF170 / Fold change vs veh, RNF170 / RFU, ZNF28 / Fold change vs veh, ZNF28 / RFU, RNGTT / Fold change vs veh, RNGTT / RFU, OGT / Fold change vs veh, OGT / RFU, BRD1 / Fold change vs veh, BRD1 / RFU, MARS / Fold change vs veh, MARS / RFU, ZNF655 / Fold change vs veh, ZNF655 / RFU, FAHD1 / Fold change vs veh, FAHD1 / RFU, BDP1 / Fold change vs veh, BDP1 / RFU, LRRCC1 / Fold change vs veh, LRRCC1 / RFU, ARID1A / Fold change vs veh, ARID1A / RFU, ZNF146 / Fold change vs veh, ZNF146 / RFU, ZNF330 / Fold change vs veh, ZNF330 / RFU, GPN3 / Fold change vs veh, GPN3 / RFU, C9orf123 / Fold change vs veh, C9orf123 / RFU, N4BP2L2 / Fold change vs veh, N4BP2L2 / RFU, ARFIP1 / Fold change vs veh, ARFIP1 / RFU, FAM179B / Fold change vs veh, FAM179B / RFU, BCL10 / Fold change vs veh, BCL10 / RFU, UHRF1BP1L / Fold change vs veh, UHRF1BP1L / RFU, BET1 / Fold change vs veh, BET1 / RFU, CNOT2 / Fold change vs veh, CNOT2 / RFU, ZNF268 / Fold change vs veh, ZNF268 / Fold change vs veh, ZNF507 / RFU, DGCR2 / Fold change vs veh, DGCR2 / RFU, WDSUB1 / Fold change vs veh, WDSUB1 / Fold change vs veh, HSP90B1 /// MIR3652 / RFU, ADSS / Fold change vs veh, ADSS / RFU, GK / Fold change vs veh, GK / RFU, ZNF148 / Fold change vs veh, ZNF148 / RFU, TAF9 / Fold change vs veh, TAF9 / RFU, SLC1A5 / Fold change vs veh, SLC1A5 / RFU, SLMO2 / Fold change vs veh, SLMO2 / RFU, ABCC4 / Fold change vs veh, ABCC4 / RFU, LOC101060439 /// RAP1B / Fold change vs veh, LOC101060439 /// RAP1B / RFU, RFX7 / Fold change vs veh, RFX7 / RFU, GTPBP10 / Fold change vs veh, GTPBP10 / RFU, CNEP1R1 / Fold change vs veh, CNEP1R1 / RFU, BIVM-ERCC5 /// ERCC5 / Fold change vs veh, BIVM-ERCC5 /// ERCC5 / RFU, ILF3 / Fold change vs veh, ILF3 / RFU 11762660_at / Fold change /veh 11762660_at / RFU VCAN (11757783_s_at) / Fold change /veh VCAN (11757783_s_at) / RFU DDX43 (11728927_at) / Fold change /veh DDX43 (11728927_at) / RFU KRT8 (11758188_x_at) / Fold change /veh KRT8 (11758188_x_at) / RFU NKD1 (11759106_at) / Fold change /veh NKD1 (11759106_at) / RFU SRD5A1 (11742802_a_at) / Fold change /veh SRD5A1 (11742802_a_at) / RFU TPSAB1 /// TPSB2 (11721975_s_at) / Fold change /veh TPSAB1 /// TPSB2 (11721975_s_at) / RFU GSTM3 (11746129_a_at) / Fold change /veh GSTM3 (11746129_a_at) / RFU IL23R (11737362_x_at) / Fold change /veh IL23R (11737362_x_at) / RFU TMEM51 (11727254_a_at) / Fold change /veh TMEM51 (11727254_a_at) / RFU PIWIL2 (11732686_x_at) / Fold change /veh PIWIL2 (11732686_x_at) / RFU ORM1 (11744905_x_at) / Fold change /veh ORM1 (11744905_x_at) / RFU CCDC152 (11743942_at) / Fold change /veh CCDC152 (11743942_at) / RFU ECM1 (11717891_a_at) / Fold change /veh ECM1 (11717891_a_at) / RFU IL23R (11748794_a_at) / Fold change /veh IL23R (11748794_a_at) / RFU TNFAIP8L3 (11732012_x_at) / Fold change /veh TNFAIP8L3 (11732012_x_at) / RFU MBOAT4 (11741988_at) / Fold change /veh MBOAT4 (11741988_at) / RFU 11764193_at / Fold change /veh 11764193_at / RFU TMEM53 (11763286_at) / Fold change /veh TMEM53 (11763286_at) / RFU MAGEB2 (11727129_at) / Fold change /veh MAGEB2 (11727129_at) / RFU TMEM200A (11744735_a_at) / Fold change /veh TMEM200A (11744735_a_at) / RFU CCDC152 (11751479_a_at) / Fold change /veh CCDC152 (11751479_a_at) / RFU FAM211A (11726209_a_at) / Fold change /veh FAM211A (11726209_a_at) / RFU RGS16 (11746705_a_at) / Fold change /veh RGS16 (11746705_a_at) / RFU VCAN (11755009_s_at) / Fold change /veh VCAN (11755009_s_at) / RFU RHOB (11743442_s_at) / Fold change /veh RHOB (11743442_s_at) / RFU RGS16 (11720943_a_at) / Fold change /veh RGS16 (11720943_a_at) / RFU RGS16 (11720944_at) / Fold change /veh RGS16 (11720944_at) / RFU, VPS4B / Fold change vs veh, VPS4B / RFU, CREB1 / Fold change vs veh, CREB1 / RFU, DNAJC13 / Fold change vs veh, DNAJC13 / RFU, GNAQ / Fold change vs veh, GNAQ / RFU, CDK5R1 / Fold change vs veh, CDK5R1 / RFU, ZRANB3 / Fold change vs veh, ZRANB3 / RFU, CUL4A / Fold change vs veh, CUL4A / RFU, CCNY / Fold change vs veh, CCNY / RFU, UFL1 / Fold change vs veh, UFL1 / RFU, COG3 / Fold change vs veh, COG3 / RFU, DIAPH2 / Fold change vs veh, DIAPH2 / RFU, SKA2 / Fold change vs veh, SKA2 / RFU, AFF3 / Fold change vs veh, AFF3 / RFU, LMF1 / Fold change vs veh, LMF1 / RFU, IPO11 / Fold change vs veh, IPO11 / RFU, DFFB / Fold change vs veh, DFFB / RFU, FOXP1 / Fold change vs veh, FOXP1 / RFU, CARD8 / Fold change vs veh, CARD8 / RFU, STRN3 / Fold change vs veh, STRN3 / RFU, ADK / Fold change vs veh, ADK / RFU, RASSF2 / Fold change vs veh, RASSF2 / RFU, WIPF1 / Fold change vs veh, WIPF1 / RFU, LARP1B / Fold change vs veh, LARP1B / RFU, RASA1 / Fold change vs veh, RASA1 / RFU, RB1 / Fold change vs veh, RB1 / RFU, PPFIA1 / Fold change vs veh, PPFIA1 / RFU, MAT2A / Fold change vs veh, MAT2A / RFU, CCT5 / Fold change vs veh, CCT5 / RFU, WDR92 / Fold change vs veh, WDR92 / RFU, CUX1 / Fold change vs veh, CUX1 / RFU, TTC7A / Fold change vs veh, TTC7A / RFU, TMEM135 / Fold change vs veh, TMEM135 / RFU, DEPTOR / Fold change vs veh, DEPTOR / RFU, CPM / Fold change vs veh, CPM / RFU, DNAJB6 / Fold change vs veh, DNAJB6 / RFU, CACNA2D3 / Fold change vs veh, CACNA2D3 / RFU, DTX4 / Fold change vs veh, DTX4 / RFU, TFCP2 / Fold change vs veh, TFCP2 / RFU, GMCL1 /// GMCL1P1 / Fold change vs veh, GMCL1 /// GMCL1P1 / RFU, AEBP2 / Fold change vs veh, AEBP2 / RFU, SNHG1 /// SNORD22 /// SNORD25 /// SNORD26 /// SNORD27 /// SNORD28 /// SNORD29 /// SNORD31 / Fold change vs veh, SNHG1 /// SNORD22 /// SNORD25 /// SNORD26 /// SNORD27 /// SNORD28 /// SNORD29 /// SNORD31 / Fold change (Aza/veh), C12orf56 (ProbeSet 11735607_a_at) / Fold change (ACY-1035/veh), C12orf56 (ProbeSet 11735607_a_at) / Fold change (Aza/veh), FGFR1OP (ProbeSet 11751329_s_at) / Fold change (ACY-1035/veh), FGFR1OP (ProbeSet 11751329_s_at) / Fold change (Aza/veh), VPS36 (ProbeSet 11739960_a_at) / Fold change (ACY-1035/veh), VPS36 (ProbeSet 11739960_a_at) / RFU SYPL1 (11715823_x_at) / Fold change /veh SYPL1 (11715823_x_at) / RFU IGFBP7 (11715501_s_at) / Fold change /veh IGFBP7 (11715501_s_at) / RFU REEP3 (11722064_at) / Fold change /veh REEP3 (11722064_at) / RFU IGLL1 (11728026_x_at) / Fold change /veh IGLL1 (11728026_x_at): dose or concentration left out as unconfirmed. Particulars: MV-4-11 cells, 48 hours.

Turning to `Nc1ncn([C@@H]2O[C@H](CO)[C@@H](O)[C@H]2O)c(=O)n1` [azacitidine], the “Fold change /veh ECM1 (11717891_a_at)” value was found to be 1.26.
